Results taken from patent EP0338634B1, “Viper venom polypeptides and genetic expression” (Merck & Co., Inc., priority 1988, dated 1989).
Bridge positions count the residues as written; N and C are the ends. Square brackets hold non-standard residues; d marks the D form. Ends that are not written are not given here. Peptide text beside a SMILES is read from it. Met(O) = CS(=O)CC[C@H](N)C(=O)O

Target: human platelet aggregation (Homo sapiens, UniProt P05106+P08514)
Test: Platelet aggregation assay for synthetic echistatin and analogs (chronolog aggregometer)
Format: cell-based
Conditions: human platelet aggregation; Table 5; read-out: IC₅₀(µM)(95% CONFIDENCE LIMITS)
Description: Platelet aggregation was measured at 37°C in a chronolog aggregometer. The reaction mixture contained washed platelets (2 x 10⁸/ml), fibrinogen ([…]), Ca²⁺ (1 mM), and the platelet aggregation inhibitor fraction to be tested The aggregation was initiated by adding […] ADP 1 min after the other components had been added. The reaction was allowed to proceed for at least 2 min. The extent of inhibition of aggregation was expressed as the percentage of the rate of aggregation observed in the absence of inhibitor. […]
The concentration of peptide necessary to inhibit the rate of human platelet aggregation by 50% (IC₅₀) was determined using platelets from 2-4 donors. Determinations were performed in duplicate for each donor.

Sequence of human platelet aggregation (P08514 32-1039): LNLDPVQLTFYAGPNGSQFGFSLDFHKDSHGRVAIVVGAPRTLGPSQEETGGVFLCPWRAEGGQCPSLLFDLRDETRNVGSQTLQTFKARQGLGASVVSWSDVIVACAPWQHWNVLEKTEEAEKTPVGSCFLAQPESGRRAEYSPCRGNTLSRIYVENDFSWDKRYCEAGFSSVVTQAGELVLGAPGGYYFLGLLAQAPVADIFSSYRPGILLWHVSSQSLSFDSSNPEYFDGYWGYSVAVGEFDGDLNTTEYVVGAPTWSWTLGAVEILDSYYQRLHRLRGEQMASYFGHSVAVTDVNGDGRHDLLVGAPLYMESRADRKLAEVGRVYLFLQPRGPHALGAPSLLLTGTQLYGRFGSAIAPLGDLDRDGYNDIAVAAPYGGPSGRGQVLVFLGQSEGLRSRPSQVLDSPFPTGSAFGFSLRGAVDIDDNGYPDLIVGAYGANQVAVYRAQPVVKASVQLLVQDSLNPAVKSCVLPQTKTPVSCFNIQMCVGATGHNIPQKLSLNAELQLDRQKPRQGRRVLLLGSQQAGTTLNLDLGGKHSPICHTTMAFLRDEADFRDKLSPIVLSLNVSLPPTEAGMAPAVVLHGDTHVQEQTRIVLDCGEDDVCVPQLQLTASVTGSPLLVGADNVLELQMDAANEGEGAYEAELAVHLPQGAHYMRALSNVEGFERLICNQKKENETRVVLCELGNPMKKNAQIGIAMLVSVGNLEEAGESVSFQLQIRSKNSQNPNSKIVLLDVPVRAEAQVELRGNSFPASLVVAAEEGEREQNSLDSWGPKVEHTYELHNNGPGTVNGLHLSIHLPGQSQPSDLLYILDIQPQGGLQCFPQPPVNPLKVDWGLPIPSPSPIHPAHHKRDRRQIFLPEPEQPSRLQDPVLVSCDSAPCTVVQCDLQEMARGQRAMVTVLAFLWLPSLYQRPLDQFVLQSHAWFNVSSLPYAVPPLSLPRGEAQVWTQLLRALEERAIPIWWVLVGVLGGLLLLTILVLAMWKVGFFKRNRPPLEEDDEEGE
Sequence of human platelet aggregation (P05106 27-788): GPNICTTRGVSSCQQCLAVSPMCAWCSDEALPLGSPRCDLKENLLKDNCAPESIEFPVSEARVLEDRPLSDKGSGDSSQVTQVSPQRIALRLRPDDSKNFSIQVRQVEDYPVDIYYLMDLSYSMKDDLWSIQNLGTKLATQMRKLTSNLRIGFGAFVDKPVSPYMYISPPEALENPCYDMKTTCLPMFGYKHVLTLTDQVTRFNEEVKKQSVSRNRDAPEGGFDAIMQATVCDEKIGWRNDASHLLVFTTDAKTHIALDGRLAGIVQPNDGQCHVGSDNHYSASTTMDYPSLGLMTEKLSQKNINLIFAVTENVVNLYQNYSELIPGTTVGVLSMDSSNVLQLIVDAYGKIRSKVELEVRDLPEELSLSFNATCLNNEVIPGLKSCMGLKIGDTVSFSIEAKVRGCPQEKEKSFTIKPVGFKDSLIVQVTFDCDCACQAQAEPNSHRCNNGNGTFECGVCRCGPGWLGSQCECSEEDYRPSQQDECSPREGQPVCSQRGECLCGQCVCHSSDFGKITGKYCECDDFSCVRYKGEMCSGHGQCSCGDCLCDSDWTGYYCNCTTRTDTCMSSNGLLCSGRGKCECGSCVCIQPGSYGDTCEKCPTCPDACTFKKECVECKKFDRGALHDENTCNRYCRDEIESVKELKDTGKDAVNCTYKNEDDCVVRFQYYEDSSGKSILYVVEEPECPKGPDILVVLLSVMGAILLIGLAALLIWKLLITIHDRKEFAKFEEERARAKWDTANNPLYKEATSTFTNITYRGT

| Compound | IC50 [µM] |
| --- | --- |
| CC[C@H](C)[C@@H]1NC(=O)[C@H]([C@@H](C)O)NC(=O)CNC(=O)[C@H](CCC(=O)O)NC(=O)[C@H](CCCCN)NC(=O)[C@H](CC(C)C)NC(=O)[C@H](Cc2ccccc2)NC(=O)[C@H](CCCCN)NC(=O)[C@@H]2CSSC[C@H](NC(=O)[C@@H](N)CCC(=O)O)C(=O)N[C@@H](CCC(=O)O)C(=O)N[C@@H](CO)C(=O)NCC(=O)N3CCC[C@H]3C(=O)N[C@H]3CSSC[C@@H]4NC(=O)[C@H](Cc5ccc(O)cc5)NC(=O)[C@H](CC(=O)O)NC(=O)[C@H](CC(=O)O)NC(=O)[C@H](CC(C)C)NC(=O)[C@H](CC(=O)O)NC(=O)[C@H](CC(=O)O)NC(=O)CNC(=O)[C@H](CCCNC(=N)N)NC(=O)[C@H](C)NC(=O)[C@H](CCCNC(=N)N)NC(=O)[C@H](CCCCN)NC(=O)[C@H](CSSC[C@@H](C(=O)N5CCC[C@H]5C(=O)N[C@@H](CCCNC(=N)N)C(=O)N[C@@H](CC(N)=O)C(=O)N5CCC[C@H]5C(=O)N[C@@H](Cc5c[nH]cn5)C(=O)N[C@@H](CCCCN)C(=O)NCC(=O)N5CCC[C@H]5C(=O)N[C@@H](C)C(=O)N[C@H](C(=O)O)[C@@H](C)O)NC(=O)[C@H](CC(=O)O)NC(=O)[C@H](CSSC[C@H](NC3=O)C(=O)N[C@@H](CCCNC(=N)N)C(=O)N[C@@H](CC(N)=O)C(=O)N2)NC(=O)[C@H]([C@@H](C)O)NC(=O)[C@H](CCCCN)NC(=O)CNC(=O)[C@H](CC(N)=O)NC4=O)NC1=O [Example 13, leu 28-echistatin] | 0.034 |
| CC[C@H](C)[C@@H]1NC(=O)[C@H]([C@@H](C)O)NC(=O)CNC(=O)[C@H](CCC(=O)O)NC(=O)[C@H](CCCCN)NC(=O)[C@H](CC(C)C)NC(=O)[C@H](Cc2ccccc2)NC(=O)[C@H](CCCCN)NC(=O)[C@@H]2CSSC[C@H](NC(=O)[C@@H](N)CCC(=O)O)C(=O)N[C@@H](CCC(=O)O)C(=O)N[C@@H](CO)C(=O)NCC(=O)N3CCC[C@H]3C(=O)N[C@H]3CSSC[C@@H]4NC(=O)[C@H](Cc5ccc(O)cc5)NC(=O)[C@H](CC(=O)O)NC(=O)[C@H](CC(=O)O)NC(=O)[C@H](CCSC)NC(=O)[C@H](CC(=O)O)NC(=O)[C@H](CC(=O)O)NC(=O)CNC(=O)[C@H](CCCNC(=N)N)NC(=O)[C@H](C)NC(=O)[C@H](CCCNC(=N)N)NC(=O)[C@H](CCCCN)NC(=O)[C@H](CSSC[C@@H](C(=O)O)NC(=O)[C@H](CC(=O)O)NC(=O)[C@H](CSSC[C@H](NC3=O)C(=O)N[C@@H](CCCNC(=N)N)C(=O)N[C@@H](CC(N)=O)C(=O)N2)NC(=O)[C@H]([C@@H](C)O)NC(=O)[C@H](CCCCN)NC(=O)CNC(=O)[C@H](CC(N)=O)NC4=O)NC1=O [Example 20, (1-39)-echistatin] (H-ECESGPCCRNCKFLKEGTICKRARGDDMDDYCNGKTCDC-OH; disulfide 2-11, 7-32, 8-37, 20-39) | 0.8 |
| H-ECESGPCCRNCKFLKEGTICKNARGDFLDDYCNGKTCDCPRNPHKGPAT-OH (disulfide 2-11, 7-32, 8-37, 20-39) [Example 15, asn 22, phe 27, leu 28-echistatin] | 0.038 |
| H-ECESGPCCRNCKFLKEGTICKRARGDWMDDYCNGKTCDCPRNPHKGPAT-OH (disulfide 2-11, 7-32, 8-37, 20-39) [Example 11, trp 27-echistatin] | 0.017 |
| H-ECESGPCCRNCKFLKEGTICKRARGDDMDDYCNGKTCDCPR-NH2 (disulfide 2-11, 7-32, 8-37, 20-39) [Example 16, (1-41)-echistatin amide] | 0.066 |
| H-ECESGPCCRNCKFLKEGTICKRARGDDMDDYCNGKTCDCPRNP-NH2 (disulfide 2-11, 7-32, 8-37, 20-39) [Example 17, (1-43)-echistatin amide] | 0.081 |
| H-ECESGPCCRNCKFLKEGTICKRARGDDFDDYCNGKTCDCPRNPHKGPAT-OH (disulfide 2-11, 7-32, 8-37, 20-39) [Example 14, phe 28-echistatin] | 0.038 |
| H-ECESGPCCRNCKFLKEGTICKRARGDFLDDYCNGKTCDCPRNPHKGPAT-OH (disulfide 2-11, 7-32, 8-37, 20-39) [Example 10, phe 27, leu 28-echistatin] | 0.016 |
| H-ECESGPCCRNCKFLKEGTICKRARGDFMDDYCNGKTCDCPRNPHKGPAT-OH (disulfide 2-11, 7-32, 8-37, 20-39) [Example 9, phe 27-echistatin] | 0.013 |
| H-ECESGPCCRNCKFLKEGTICKRPRGDFLDDYCNGKTCDCPRNPHKGPAT-OH (disulfide 2-11, 7-32, 8-37, 20-39) [Example 12, pro 23, phe 27, leu 28-echistatin] | 0.026 |
| CC[C@H](C)[C@@H]1NC(=O)[C@H]([C@@H](C)O)NC(=O)CNC(=O)[C@H](CCC(=O)O)NC(=O)[C@H](CCCCN)NC(=O)[C@H](CC(C)C)NC(=O)[C@H](Cc2ccccc2)NC(=O)[C@H](CCCCN)NC(=O)[C@@H]2CSSC[C@H](NC(=O)[C@@H](N)CCC(=O)O)C(=O)N[C@@H](CCC(=O)O)C(=O)N[C@@H](CO)C(=O)NCC(=O)N3CCC[C@H]3C(=O)N[C@H]3CSSC[C@@H]4NC(=O)[C@H](Cc5ccc(O)cc5)NC(=O)[C@H](CC(=O)O)NC(=O)[C@H](CC(=O)O)NC(=O)[C@H](CCSC)NC(=O)[C@H](CC(=O)O)NC(=O)[C@H](CC(=O)O)NC(=O)CNC(=O)[C@H](CCCNC(=N)N)NC(=O)[C@H](C)NC(=O)[C@H](CCCNC(=N)N)NC(=O)[C@H](CCCCN)NC(=O)[C@H](CSSC[C@@H](C(N)=O)NC(=O)[C@H](CC(=O)O)NC(=O)[C@H](CSSC[C@H](NC3=O)C(=O)N[C@@H](CCCNC(=N)N)C(=O)N[C@@H](CC(N)=O)C(=O)N2)NC(=O)[C@H]([C@@H](C)O)NC(=O)[C@H](CCCCN)NC(=O)CNC(=O)[C@H](CC(N)=O)NC4=O)NC1=O [Example 19, (1-39)-echistatin amide] (H-ECESGPCCRNCKFLKEGTICKRARGDDMDDYCNGKTCDC-NH2; disulfide 2-11, 7-32, 8-37, 20-39) | 0.327 |
| ECESGPCCRNCKFLKEGTICKRARGDD[Met(O)]DDYCNGKTCDCPRNPHKGPAT (disulfide 2-11, 7-32, 8-37, 20-39) [Example 18, met SO 28-echistatin] | 0.088 |

Same assay, conditions: rate of human platelet aggregation; platelets from 2-4 donors, duplicate; Table 4; read-out: IC₅₀(µM)(95% CONFIDENCE LIMITS)

| Compound | IC50 [µM] |
| --- | --- |
| H-ECESGPCCRNCKFLKEGTICKRARGDDMDDYCNGKTCDCPRNPHKGPAT-OH (disulfide 2-11, 7-32, 8-37, 20-39) [Synthetic Echistatin, echistatin] | 0.033 |
